From US10264789B2, “Rodentia animal repellent” (SUMITOMO CHEMICAL COMPANY, LIMITED, priority 2014, dated 2019)

System: female mouse (Jcl: ICR lineage)
Assay: Repellent test (Experimental Example 1, two-section feed choice apparatus)
Format: in vivo
Details: drug amount 0.5 g on one sheet of filter paper
Method: Experimental Example 1 (Test Animal: Mouse)
The repellent test was performed using the repellent test apparatus described in FIG. 1. The apparatus has a residential section for the test animal in the center part, test section 1 and test section 2 setting food on both ends, test section 1 and the residential section are connected by a cylindrical path (diameter 0.05 m, length 2.08 m), and test section 2 and the residential section are also connected by a cylindrical path. The test section 1 and test section 2 are resin cuboid shape (0.68 m×0.40 m×0.32 m) containers, and the connection parts with the paths are opened. The residential section is also a resin cuboid shape (0.28 m×0.45 m×0.16 m), and the upper part made of an iron net so that the air can be taken in. An openable door is set in the connection part between the residential section and the path. Chips for floor:clean chip SP (manufactured by CLEA Japan, Inc.) were spread all over the bottom part of the residential section.
An acclimation operation was performed before the repellent test to make the test animal experienced with the test apparatus.
A weighed feed (solid food CE-2 for breeding and raising, manufactured by CLEA Japan, Inc.) (initial feed weight about 10 g) was set in each of test section 1 and test section 2, one female mouse (Jcl: ICR lineage) was placed in the residential section. One day later, the feed remaining in both test sections was weighed, and the eating rate was calculated by the following formula. When the eating rates of the both test sections are considerably different, the feed was changed to a new one, and the acclimation operation was repeated for several days until the eating rate was stabilized, and the eating rates of the both test sections became almost equivalent. eating rate (%)=100×amount eaten (g)/initial feed weight (g) <Repellent Test>
After completion of the acclimation operation, the same feed (solid food CE-2 for breeding and raising, manufactured by CLEA Japan, Inc.) (about 10 g) was placed in the both test sections. […] After 1 hr from setting the filter paper, the door of the connection part between the residential section and the path was closed, and thereafter the door was opened. After lapse of one day from the start of the test, the feed remaining in the both test sections was weighed. When the test was continued for not less than one day, the feed in the both test sections was exchanged every other day, and the remaining feed was weighed every day.
The repellent rate was calculated by the following formula. The test section where the filter paper (diameter 70 mm, manufactured by Advantec Toyo Kaisha, Ltd.) treated with the test compound was set was taken as the treatment section, and the test section where the filter paper was not set was taken as the non-treatment section. repellent rate (%)=100×(amount eaten in non-treatment section−amount eaten in treatment section)/(amount eaten in non-treatment section+amount eaten in treatment section)

SMILES	repellent rate (%) (number of observation days 1)	repellent rate (%) (number of observation days 3)
c1ccc(-c2nc3ccccc3s2)cc1 [comparison compound B, reference compound]	0%	
c1ccc2scnc2c1 [Comparison compound C, reference compound]	4%	
Sc1nc2ccccc2s1 [comparison compound A, reference compound]	0%	
FC(F)(F)c1nc2ccccc2s1 [present compound 6, 2-trifluoromethyl-1,3-benzothiazole]	100%	
CC1(C)Nc2ccccc2S1 [present compound 14, 2,2-dimethyl-2,3-dihydro-1,3-benzothiazole]	100%	92%
CC(C)Cc1nc2ccccc2s1 [present compound 5, 2-isobutyl-1,3-benzothiazole]	94%	
Cc1nc2c(C)cccc2s1 [present compound 13, 2,4-dimethyl-1,3-benzothiazole]	100%	100%
